According to patent US8785160B2, “Prebiotic formulations and methods of use” (Ritter Pharmaceuticals, Inc., priority 2009, dated 2014):

Test system: Bifidobacterium species
Assay: Comparative growth of Bifidobacterium species and strains on 2% carbohydrate in scratch MRS
Type: cell-based
Settings: scratch MRS + 2% carbohydrate, 37 C

## OC[C@H]1O[C@@H](O[C@H]2[C@H](O)[C@@H](O)C(O)O[C@@H]2CO)[C@H](O)[C@@H](O)[C@H]1O (stereo partly shown) [lactose]
  comparative growth of Bifidobacterium species on four carbohydrate sources (glucose, lactose, GOS1, GOS2): none of the Bifidobacterium strains used in these experiments grew on lactose
